Measurements as given in US20160324863A1, “TARGETED CANCER TREATMENT BY HSP90 INHIBITORS GANETESPIB AND NVP-AUY922” (SYNTA PHARMACEUTICALS CORP., priority 2014, published 2016).

How the values were obtained:
[1] = test system: RT4 bladder cancer cell line; assay: CellTiter-Glo viability assay, RT4; assay type: cell-based; settings: 72 hours (FIG. 8), read-out: IC50 values
Method: (§1) Cellular viability was assessed using the CellTiter-Glo Luminescent Cell Viability Assay (Promega) according to manufacturer protocols. Bladder cancer cell lines were seeded into 96-well plates based on optimal growth rates determined empirically for each line. Twenty-four hours after plating, cells were dosed with graded concentrations of ganetespib for 72 hours. CellTiter-Glo was added (50% v/v) to the cells, and the plates incubated for 10 minutes prior to luminescent detection in a SpectraMax Plus 384 microplate reader (Molecular Devices). Data were normalized to percent of control and IC50 values used to determine the sensitivity of each line. For the comparative analyses with ganetespib and BGJ398, RT112 cells were treated with graded concentrations of each compound for 72 hours and cell viability measured as above. For the evaluation of apoptotic induction, caspase activity was assessed using the Caspase-Glo 3/7 assay (Promega) according to manufacturer protocols. Twenty-four hours after plating, RT112 cells were treated with graded concentrations of ganetespib for 24 hours. Caspase-Glo was added to cells (50% v/v) and the plates incubated for 1 hour prior to luminescent detection.

[2] = test system: FGFR3-TAAC3 in RT112 cells; assay: Western blotting of FGFR3-TAAC3 and signaling proteins in RT112 cells; assay type: cell-based; settings: 100 nM, 24 hours
Method: Following in vitro assays, tumor cells were disrupted in lysis buffer on ice for 10 minutes. Lysates were clarified by centrifugation and equal amounts of proteins resolved by SDS-PAGE before transfer to nitrocellulose membranes (Bio-Rad). Membranes were blocked with StartingBlock T20 blocking buffer (Thermo Scientific) and immunoblotted with the indicated antibodies. Antibody-antigen complexes were visualized using an Odyssey system (LI-COR).

[3] = test system: RT112 xenografts; assay: RT112 xenograft tumor model; assay type: in vivo; settings: BGJ398 10 mg/kg p.o. daily, 3 weeks
Method: CD-1 nude mice (Charles River Laboratories, Wilmington, Mass.) at 7-12 weeks of age were maintained in a pathogen-free environment and all in vivo procedures were approved by the Synta Pharmaceuticals Corp. Institutional Animal Care and Use Committee. RT112 cells (5×10^6) were subcutaneously implanted into female mice and animals bearing established tumors (˜150 mm^3) were randomized into treatment groups of 8. Mice were i.v. dosed with ganetespib (150 mg/kg) once weekly or p.o. dosed with BGJ398 (10 mg/kg) daily, either alone or in combination, for 3 weeks. Tumor growth inhibition was monitored by tumor volume measurements twice weekly. As a measurement of in vivo efficacy, the % T/C value was determined from the change in average tumor volumes of each treated group relative to the vehicle treated animals. Statistical significance was determined using two-way ANOVA followed by Bonferroni post tests.

[4] = test system: RT112 bladder cancer cell line; assay: CellTiter-Glo viability assay, RT112; assay type: cell-based; settings: Homo sapiens, RT-112, 72-hour combination viability assay, single inhibitor, read-out: approximate IC50 concentrations
Method: as §1

[5] = test system: SW780 bladder cancer cell line; assay: CellTiter-Glo viability assay, SW780; assay type: cell-based; settings: 72 hours (FIG. 12)
Method: as §1

SMILES: CCNC(=O)c1noc(-c2cc(C(C)C)c(O)cc2O)c1-c1ccc(CN2CCOCC2)cc1 [AUY922]
- IC50 [1]: > 1000 nM

SMILES: CCN1CCN(c2ccc(Nc3cc(N(C)C(=O)Nc4c(Cl)c(OC)cc(OC)c4Cl)ncn3)cc2)CC1 [BGJ398, reference compound]
- total FGFR3-TAAC3 expression [2]: did not affect
- T/C value [3]: −20%
- IC50 [4]: ~5 nM

SMILES: CO[C@H]1/C=C\C=C(/C)C(=O)NC2=CC(=O)C(NCCN(C)C)=C(C[C@@H](C)C[C@H](OC)[C@H](O)[C@@H](C)/C=C(\C)[C@@H]1OC(N)=O)C2=O [17-DMAG, 17-dimethylaminoethylamino-17-demethoxygeldanamycin]
- cytotoxicity / sensitivity of cells (in words) [5]: acutely sensitive

SMILES: C=CCNC1=C2C[C@@H](C)C[C@H](OC)[C@H](O)[C@@H](C)/C=C(\C)[C@H](OC(N)=O)[C@@H](OC)/C=C\C=C(/C)C(=O)NC(=CC1=O)C2=O [17-AAG, 17-allylamino-17-demethoxygeldanamycin]
- cytotoxicity / sensitivity of cells (in words) [5]: acutely sensitive
